# From US20080171662A1, “Aminocarbonyl-Substituted Thiensulfonylamino(Thio)Carbonyl-Triazolin(Ethi)Ones, Processes For Their Preparation And Their Use” (priority 2004, published 2008)
structure (smiles),measurement,value
"CCOc1nn(C(=O)NS(=O)(=O)c2c(C(=O)N(C)C)csc2C)c(=O)n1C [Example 1, 5-ethoxy-4-methyl-2-[(4-dimethylaminocarbonyl-2-methylthien-3-yl)sulfonylaminocarbonyl]-2,4-dihydro-3H-1,2,4-triazol-3-one]",melting point,162 °C
